Common to all, as to type: biochemical
The target of one assay is Pim-3 (Homo sapiens (Human), UniProt Q86V86). Description: Pim-3 kinase assay. The note with it: 1 mM ATP; read-out: PIM3 IC50. In a few lines: (§1)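 Enzyme at 2.5 pM (Pim-1) or 1.25 pM (Pim-3) reacted 1 h at 25° C with 1 mM ATP and 0.05 μM biotinylated BAD peptide, pH 7.5. Phospho-Ser112 BAD detected by antibody/Protein-A acceptor and streptavidin donor bead proximity signal after EDTA quench and 1 h dark incubation.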

In a further assay the target is Pim-2 (Homo sapiens (Human), UniProt Q9P1W9). Description: Pim-2 kinase assay. As to conditions: 1 mM ATP; read-out: PIM2 IC50. In a few lines:
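TR-FRET assay with 1 nM enzyme, 0.05 μM fluorescein-CREBtide and 1 mM ATP in Tris pH 7.5 buffer with MgCl2, DTT, BSA and Tween-20, run 2 h at 25° C. Stopped with EDTA and Tb-labelled anti-CREB pSer133 antibody, then read after 30 min at room temperature.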

Another assay has as its target Pim-1 (Homo sapiens (Human), UniProt P11309). Description: Pim-1 kinase assay. The note with it: 1 mM ATP; read-out: PIM1 IC50. An outline of the steps:
as §1

Pim-1, sequence (P11309 whole entry): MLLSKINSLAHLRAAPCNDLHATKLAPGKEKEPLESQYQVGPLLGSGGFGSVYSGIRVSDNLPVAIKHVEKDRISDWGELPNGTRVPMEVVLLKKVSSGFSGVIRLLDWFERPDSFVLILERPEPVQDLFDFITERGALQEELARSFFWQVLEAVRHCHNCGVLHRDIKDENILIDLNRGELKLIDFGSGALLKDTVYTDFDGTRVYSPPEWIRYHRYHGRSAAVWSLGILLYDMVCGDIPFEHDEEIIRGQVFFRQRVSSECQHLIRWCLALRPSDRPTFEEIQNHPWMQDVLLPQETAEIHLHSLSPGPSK
Pim-2, sequence (Q9P1W9 whole entry): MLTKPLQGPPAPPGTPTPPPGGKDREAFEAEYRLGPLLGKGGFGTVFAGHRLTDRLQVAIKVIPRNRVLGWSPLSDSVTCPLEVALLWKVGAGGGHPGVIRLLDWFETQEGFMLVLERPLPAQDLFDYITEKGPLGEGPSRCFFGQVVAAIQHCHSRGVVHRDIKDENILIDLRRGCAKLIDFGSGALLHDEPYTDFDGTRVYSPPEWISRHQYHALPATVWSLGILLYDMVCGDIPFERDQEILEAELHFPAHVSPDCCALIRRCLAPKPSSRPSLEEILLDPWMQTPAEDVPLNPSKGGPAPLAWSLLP

The term IC50 denotes the point on the concentration scale where inhibition reaches its midpoint. As to `COC[C@H]1CCCN1c1cnc2c(C(=O)Nc3cnccc3[C@@H]3C[C@H](C)C[C@H](N)C3)ccc(F)c2c1` [Example 47, N-(4-((1R,3S,5S)-3-Amino-5-methylcyclohexyl)pyridin-3-yl)-5-fluoro-3-OR)-2-(methoxymethyl)pyrrolidin-1-yl)quinoline-8-carboxamide], the IC50 on Pim-3 was at most 10 nM; at Pim-2, at most 100 nM; on Pim-1, at most 10 nM.

Consider `CCC1CCCCN1c1cnc2c(C(=O)Nc3cnccc3[C@@H]3C[C@H](C)C[C@H](N)C3)ccc(F)c2c1` (stereo partly drawn) [Example 57, N-(4-((1R,3S,5S)-3-Amino-5-methylcyclohexyl)pyridin-3-yl)-3-(2-ethylpiperidin-1-yl)-5-fluoroquinoline-8-carboxamide], for which the figures for the IC50 on Pim-3, on Pim-2 and on Pim-1 were 10 to 50 nM, at most 100 nM and at most 10 nM, respectively.

`COC(=O)N1CCN(c2cnc3c(C(=O)Nc4cnccc4[C@@H]4C[C@H](C)C[C@H](N)C4)ccc(F)c3c2)[C@H](C)C1` [Example 89, (R)-Methyl 4-(8-(4-((1R,3S,5S)-3-amino-5-methylcyclohexyl)pyridin-3-ylcarbamoyl)-5-fluoroquinolin-3-yl)-3-methylpiperazine-1-carboxylate]: the results for the IC50 at Pim-3, at Pim-2 and at Pim-1 were at most 10 nM, at most 100 nM and at most 10 nM, respectively.

Regarding `C[C@@H]1C[C@H](N)C[C@H](c2ccncc2NC(=O)c2ccc(F)c3cc(N4CC(=O)N(C)C[C@H]4C)cnc23)C1` [Example 99, N-(4-((1R,3S,5S)-3-Amino-5-methylcyclohexyl)pyridin-3-yl)-3-((R)-2,4-dimethyl-5-oxopiperazin-1-yl)-5-fluoroquinoline-8-carboxamide], the figures for the IC50 at Pim-3, at Pim-2 and at Pim-1 were at most 10 nM, at most 100 nM and at most 10 nM, respectively.

The values above are taken from US9920032B2, “Heterocyclic compounds useful as pim kinase inhibitors” (Incyte Corporation, priority 2015, dated 2018).
